# Test results as given in patent US12077503B2, “Substituted cyclic amides and their use as herbicides” (FMC CORPORATION, priority 2015, dated 2024).
# What was measured:
# Type in all cases: in vivo
# corn (Zea mays) [1] = assay: Test G Pre-Emergence Protocol; details: Zea mays, pre-emergence, 312 h, evaluated after 13 days; for plant injury at 15.625 g/ha: 15.625 g ai/ha; for plant injury at 15.625 g/ha / plant injury at 250 g/ha: read-out: Corn damage rating (100=total damage to plant; 0=no damage to plant); for plant injury at 62.5 g/ha: 62.5 g ai/ha, 100=total damage to plant, 0=no damage to plant, read-out: plant damage rating, Corn; for plant injury at 250 g/ha: 250 g ai/ha
# In short: (§1)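 Glasshouse pre-emergence test: soil-sown seeds, sprayed after 1 d at 15.625, 62.5 or 250 g/ha. Conditions 24/16° C day/night, 14 h light, 65% humidity, watering twice daily. Rating 13 d post-spray (100 = total damage).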
# [2] = system: velvetleaf (Abutilon theophrasti); assay: Test G Pre-Emergence Protocol; details: Abutilon theophrasti, pre-emergence, 312 h, evaluated after 13 days; for pest or weed control at 15.625 g/ha: 15.625 g ai/ha; for pest or weed control at 15.625 g/ha / pest or weed control at 250 g/ha: read-out: Velvetleaf damage rating (100=total damage to plant; 0=no damage to plant); for pest or weed control at 62.5 g/ha: 62.5 g ai/ha, 100=total damage to plant, 0=no damage to plant, read-out: plant damage rating, Velvetleaf; for pest or weed control at 250 g/ha: 250 g ai/ha
# In short: as §1
# [3] = system: ivy-leaved morning glory (Ipomoea hederacea); assay: Test G Pre-Emergence Protocol; details: Ipomoea, pre-emergence, 312 h, evaluated after 13 days; for pest or weed control at 15.625 g/ha: 15.625 g ai/ha, read-out: Morning-glory, Ivy-leaved damage rating (100=total damage to plant; 0=no damage to plant); for pest or weed control at 62.5 g/ha: 62.5 g ai/ha, 100=total damage to plant, 0=no damage to plant, read-out: plant damage rating, Morningglory, Ivy-leaved; for pest or weed control at 250 g/ha: 250 g ai/ha, read-out: Morningglory, Ivy-leaved damage rating (100=total damage to plant; 0=no damage to plant)
# In short: as §1
# [4] = system: barnyardgrass (Echinochloa crus-galli); assay: Test G Pre-Emergence Protocol; details: Echinochloa crus-galli, pre-emergence, 312 h, evaluated after 13 days; for pest or weed control at 15.625 g/ha: 15.625 g ai/ha, read-out: Barnyard grass damage rating (100=total damage to plant; 0=no damage to plant); for pest or weed control at 62.5 g/ha: 62.5 g ai/ha, 100=total damage to plant, 0=no damage to plant, read-out: plant damage rating, Barnyardgrass; for pest or weed control at 250 g/ha: 250 g ai/ha, read-out: Barnyardgrass damage rating (100=total damage to plant; 0=no damage to plant)
# In short: as §1
# [5] = system: giant foxtail (Setaria faberi); assay: Test G Pre-Emergence Protocol; details: Setaria faberi, pre-emergence, 312 h, evaluated after 13 days; for pest or weed control at 15.625 g/ha: 15.625 g ai/ha; for pest or weed control at 15.625 g/ha / pest or weed control at 250 g/ha: read-out: Foxtail, Giant damage rating (100=total damage to plant; 0=no damage to plant); for pest or weed control at 62.5 g/ha: 62.5 g ai/ha, 100=total damage to plant, 0=no damage to plant, read-out: plant damage rating, Foxtail, Giant; for pest or weed control at 250 g/ha: 250 g ai/ha
# In short: as §1
# [6] = system: redroot pigweed (Amaranthus retroflexus); assay: Test G Pre-Emergence Protocol; details: Amaranthus retroflexus, pre-emergence, 312 h, evaluated after 13 days; for pest or weed control at 15.625 g/ha: 15.625 g ai/ha; for pest or weed control at 15.625 g/ha / pest or weed control at 250 g/ha: read-out: Pigweed, Redroot damage rating (100=total damage to plant; 0=no damage to plant); for pest or weed control at 62.5 g/ha: 62.5 g ai/ha, 100=total damage to plant, 0=no damage to plant, read-out: plant damage rating, Pigweed, Redroot; for pest or weed control at 250 g/ha: 250 g ai/ha
# In short: as §1
# corn (Zea mays) [7] = assay: Test G Post-Emergence Protocol; details: Zea mays, post-emergence, 312 h; for plant injury at 15.625 g/ha: 15.625 g ai/ha, evaluated after 13 days (100=total damage to plant; 0=no damage to plant), read-out: Corn damage rating; for plant injury at 62.5 g/ha: 62.5 g ai/ha, read-out: Corn damage rating (100=total damage to plant; 0=no damage to plant); for plant injury at 62.5 g/ha / plant injury at 250 g/ha: evaluated after 13 days; for plant injury at 250 g/ha: 250 g ai/ha, read-out: damage to plant, Corn (100=total damage to plant; 0=no damage to plant)
# In short: (§2)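 Values are percent visual injury at 13 days after treatment (0 none, 100 total). Treatment was a post-emergence spray at 15.625, 62.5 or 250 g/ha on 8-day-old pot plants kept at 24/16 °C.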
# [8] = system: velvetleaf (Abutilon theophrasti); assay: Test G Post-Emergence Protocol; details: Abutilon theophrasti, post-emergence, 312 h; for pest or weed control at 15.625 g/ha: 15.625 g ai/ha, evaluated after 13 days (100=total damage to plant; 0=no damage to plant), read-out: Velvetleaf damage rating; for pest or weed control at 62.5 g/ha: 62.5 g ai/ha, read-out: Velvetleaf damage rating (100=total damage to plant; 0=no damage to plant); for pest or weed control at 62.5 g/ha / pest or weed control at 250 g/ha: evaluated after 13 days; for pest or weed control at 250 g/ha: 250 g ai/ha, read-out: damage to plant, Velvetleaf (100=total damage to plant; 0=no damage to plant)
# In short: as §2
# [9] = system: ivy-leaved morning glory (Ipomoea hederacea); assay: Test G Post-Emergence Protocol; details: Ipomoea, post-emergence, 312 h; for pest or weed control at 15.625 g/ha: 15.625 g ai/ha, evaluated after 13 days (100=total damage to plant; 0=no damage to plant), read-out: Morningglory, Ivy-leaved damage rating; for pest or weed control at 62.5 g/ha: 62.5 g ai/ha, read-out: Morningglory, Ivy-leaved damage rating (100=total damage to plant; 0=no damage to plant); for pest or weed control at 62.5 g/ha / pest or weed control at 250 g/ha: evaluated after 13 days; for pest or weed control at 250 g/ha: 250 g ai/ha, read-out: damage to plant, Morningglory, Ivy-leaved (100=total damage to plant; 0=no damage to plant)
# In short: as §2
# [10] = system: barnyardgrass (Echinochloa crus-galli); assay: Test G Post-Emergence Protocol; details: Echinochloa crus-galli, post-emergence, 312 h; for pest or weed control at 15.625 g/ha: 15.625 g ai/ha, evaluated after 13 days (100=total damage to plant; 0=no damage to plant), read-out: Barnyardgrass damage rating; for pest or weed control at 62.5 g/ha: 62.5 g ai/ha, read-out: Barnyardgrass damage rating (100=total damage to plant; 0=no damage to plant); for pest or weed control at 62.5 g/ha / pest or weed control at 250 g/ha: evaluated after 13 days; for pest or weed control at 250 g/ha: 250 g ai/ha, read-out: damage to plant, Barnyardgrass (100=total damage to plant; 0=no damage to plant)
# In short: as §2
# [11] = system: giant foxtail (Setaria faberi); assay: Test G Post-Emergence Protocol; details: Setaria faberi, post-emergence, 312 h; for pest or weed control at 15.625 g/ha: 15.625 g ai/ha, evaluated after 13 days (100=total damage to plant; 0=no damage to plant), read-out: Foxtail, Giant damage rating; for pest or weed control at 62.5 g/ha: 62.5 g ai/ha, read-out: Foxtail, Giant damage rating (100=total damage to plant; 0=no damage to plant); for pest or weed control at 62.5 g/ha / pest or weed control at 250 g/ha: evaluated after 13 days; for pest or weed control at 250 g/ha: 250 g ai/ha, read-out: damage to plant, Foxtail, Giant (100=total damage to plant; 0=no damage to plant)
# In short: as §2
# [12] = system: redroot pigweed (Amaranthus retroflexus); assay: Test G Post-Emergence Protocol; details: Amaranthus retroflexus, post-emergence, 312 h; for pest or weed control at 15.625 g/ha: 15.625 g ai/ha, evaluated after 13 days (100=total damage to plant; 0=no damage to plant), read-out: Pigweed, Redroot damage rating; for pest or weed control at 62.5 g/ha: 62.5 g ai/ha, read-out: Pigweed, Redroot damage rating (100=total damage to plant; 0=no damage to plant); for pest or weed control at 62.5 g/ha / pest or weed control at 250 g/ha: evaluated after 13 days; for pest or weed control at 250 g/ha: 250 g ai/ha, read-out: damage to plant, Pigweed, Redroot (100=total damage to plant; 0=no damage to plant)
# In short: as §2
Structure (SMILES),plant injury at 15.625 g/ha (corn (Zea mays) [1]) [%],plant injury at 62.5 g/ha (corn (Zea mays) [1]) [%],plant injury at 250 g/ha (corn (Zea mays) [1]) [%],pest or weed control at 15.625 g/ha [2] [%],pest or weed control at 62.5 g/ha [2] [%],pest or weed control at 250 g/ha [2] [%],pest or weed control at 15.625 g/ha [3] [%],pest or weed control at 62.5 g/ha [3] [%],pest or weed control at 250 g/ha [3] [%],pest or weed control at 15.625 g/ha [4] [%],pest or weed control at 62.5 g/ha [4] [%],pest or weed control at 250 g/ha [4] [%],pest or weed control at 15.625 g/ha [5] [%],pest or weed control at 62.5 g/ha [5] [%],pest or weed control at 250 g/ha [5] [%],pest or weed control at 15.625 g/ha [6] [%],pest or weed control at 62.5 g/ha [6] [%],pest or weed control at 250 g/ha [6] [%],plant injury at 15.625 g/ha (corn (Zea mays) [7]) [%],plant injury at 62.5 g/ha (corn (Zea mays) [7]) [%],further results
CN1C[C@@H](c2ccc(C(F)(F)F)cc2)[C@H](C(=O)Nc2cccc3cn[nH]c23)C1=O (racemic) [Compound 1605],0,0,0,0,0,0,0,0,0,0,0,0,0,0,0,0,0,0,0,0,plant injury at 250 g/ha (corn (Zea mays) [7]): 10%; pest or weed control at 15.625 g/ha [8]: 0%; pest or weed control at 62.5 g/ha [8]: 0%; pest or weed control at 250 g/ha [8]: 10%; pest or weed control at 15.625 g/ha [9]: 0%; pest or weed control at 62.5 g/ha [9]: 0%; pest or weed control at 250 g/ha [9]: 0%; pest or weed control at 15.625 g/ha [10]: 0%; pest or weed control at 62.5 g/ha [10]: 0%; pest or weed control at 250 g/ha [10]: 30%; pest or weed control at 15.625 g/ha [11]: 0%; pest or weed control at 62.5 g/ha [11]: 0%; pest or weed control at 250 g/ha [11]: 10%; pest or weed control at 15.625 g/ha [12]: 0%; pest or weed control at 62.5 g/ha [12]: 20%; pest or weed control at 250 g/ha [12]: 30%
CN1C[C@@H](c2ccc(C(F)(F)F)cc2)[C@H](C(=O)Nc2ccncc2Cl)C1=O (racemic) [Compound 1608],0,0,0,0,0,0,0,0,0,0,0,0,0,0,0,0,10,20,0,10,plant injury at 250 g/ha (corn (Zea mays) [7]): 20%; pest or weed control at 15.625 g/ha [8]: 0%; pest or weed control at 62.5 g/ha [8]: 0%; pest or weed control at 250 g/ha [8]: 0%; pest or weed control at 15.625 g/ha [9]: 40%; pest or weed control at 62.5 g/ha [9]: 30%; pest or weed control at 250 g/ha [9]: 40%; pest or weed control at 15.625 g/ha [10]: 0%; pest or weed control at 62.5 g/ha [10]: 10%; pest or weed control at 250 g/ha [10]: 10%; pest or weed control at 15.625 g/ha [11]: 0%; pest or weed control at 62.5 g/ha [11]: 10%; pest or weed control at 250 g/ha [11]: 60%; pest or weed control at 15.625 g/ha [12]: 0%; pest or weed control at 62.5 g/ha [12]: 10%; pest or weed control at 250 g/ha [12]: 20%
CCc1nc(NC(=O)[C@@H]2C(=O)N(C)C[C@H]2c2ccc(C(F)(F)F)cc2)n[nH]1 (racemic) [Compound 1610],0,0,0,0,0,0,0,0,0,0,0,0,0,0,0,0,0,0,0,0,plant injury at 250 g/ha (corn (Zea mays) [7]): 0%; pest or weed control at 15.625 g/ha [8]: 0%; pest or weed control at 62.5 g/ha [8]: 0%; pest or weed control at 250 g/ha [8]: 0%; pest or weed control at 15.625 g/ha [9]: 0%; pest or weed control at 62.5 g/ha [9]: 0%; pest or weed control at 250 g/ha [9]: 0%; pest or weed control at 15.625 g/ha [10]: 0%; pest or weed control at 62.5 g/ha [10]: 0%; pest or weed control at 250 g/ha [10]: 0%; pest or weed control at 15.625 g/ha [11]: 0%; pest or weed control at 62.5 g/ha [11]: 0%; pest or weed control at 250 g/ha [11]: 0%; pest or weed control at 15.625 g/ha [12]: 0%; pest or weed control at 62.5 g/ha [12]: 0%; pest or weed control at 250 g/ha [12]: 0%
